According to US20080208179A1, “METHODS OF INCREASING SKIN PERMEABILITY BY TREATMENT WITH ELECTROMAGNETIC RADIATION” (Reliant Technologies, Inc., priority 2006, published 2008):
Blank lines part the entries; values can stand above or below the molecule they belong to.

Assays:
Assay type in all cases: in vitro ADME
[1] = In vitro permeation of 5-Fluorouracil through fractional laser treated ex vivo human skin (Example 8)
Experimental: In vitro permeation studies were performed on untreated and treated ex vivo human skin to determine if treatment of the skin with fractional laser radiation increased skin permeability to a 0.5% (w/v) 5-Fluorourocil solution. The treatment was conducted using the methods outlined in Examples 6 and 7 using a Fraxel Re:store™ laser system (Reliant Technologies, Mountain View, Calif., USA). The treatment parameters used included a laser pulse energy of 10 mJ, a 60 μm incident optical spot size, and a final spot density of 2000 MTZ/cm^2. The skin graft thickness used was 500 μm. The experiment consisted of a total of 6 individual runs (n=6). The uptake study was conducted using an infinite dose regimen.
The total uptake was taken as the sum of the permeated and retained 5-Fluorouracil. The permeation values were calculated at each time point and plotted as a cumulative value in FIG. 16. Over the course of the study (24 hours), the uptake of 5-Fluorouracil from the untreated skin (control) remained below 0.2 mg/cm^2, while the uptake of 5-Fluorouracil from the laser treated skin approached 1.4 mg/cm^2 after 24 hours.

[2] = In vitro permeation of ascorbic acid through fractional laser treated ex vivo human skin (Example 7, 85 μm spot size); conditions: for Cumulative permeation / Enhancement ratio (total uptake in treated sample/total uptake in control) / Retention / Total uptake: 90 min; for Normalized cumulative permeation at 10 mJ @ 2000 MTZ/cm2 relative to 20 mJ @ 1000 MTZ/cm2: by 90 min
Experimental: In vitro permeation studies were performed on untreated and treated human skin to determine if treatment of the skin with fractional laser radiation increased skin permeability to ascorbic acid.
A modified 1550 nm Fraxel® SR laser system was operated as previously described by Bedi et al., Lasers Surg Med, 2007 February; 39(2):145-55. Arrays of single mode Gaussian beams of 85 μm 1/e^2 diameter at incidence were delivered to the surface of the skin specimen in each treatment, using contact and non-contact tips. The contact tip abutted the specimen through a sapphire window through which the laser beam was irradiated. The non-contact tip omitted the sapphire window; thus, the laser incidence occurred at the air-tissue interface. The laser pulse energies tested for ascorbic acid uptake measurements were 10 and 20 mJ. For each 10 mJ treatment, 8 passes at 250 microscopic treatment zones (MTZs) per cm^2 were made at a constant velocity of 1.0 cm per second producing a final spot density of 2000 MTZs per cm^2; for each 20 mJ treatment, 4 passes at 250 microscopic treatment zones (MTZs) per cm^2 were made at a constant velocity of 1.0 cm per second producing a final spot density of 1000 MTZs per cm^2. These pulse energy and spot density combination parameters are similar to those used in a typical clinical NFR™ treatment session. Histologic examination was performed for pulse energies ranging from 6 to 40 mJ at a fixed spot size of 85 μm. The pulse durations ranged from 0.24 to 1.6 msec per pulse.
(§1) Topical vitamin C solution contained L-ascorbic acid 15% (VWR International, West Chester, Pa.), ferulic acid 0.5%, and vitamin E 1% buffered to a pH of 3.2±0.2 with triethanolamine (Lin et al, 2005). Ascorbic acid was freshly prepared avoiding light exposure just prior to each experiment.
(§2) The uptake studies were carried out using skin permeation systems (LGA, Inc., Berkeley, Calif.) and 500 μm thick skin grafts from freshly excised human abdominal skin. Non-laser treated skin was used as a control. Immediately after laser treatment, each skin sample was mounted on a permeation system whose donor compartment was then filled with ascorbic acid solution (Lee et al, 2003). The entire arrangement was incubated to simulate body temperature. Aliquots were drawn at 5, 10, 15, 30, 60, and 90 min from the diffusion chamber, and quantitatively analyzed for permeated ascorbic acid using high performance liquid chromatography (HPLC). After 90 min, each skin sample was washed thoroughly in saline, weighed, homogenized and centrifuged (Lee et al, 2003). This was followed by HPLC analysis to determine the retained ascorbic acid value. The measured retention was then normalized to the effective area of skin sample through which permeation occurred. Each experiment constituted a total of 5 individual runs (n=5).
The total uptake was taken as the sum of the permeated and retained ascorbic acid over the cross-sectional area of the skin through which uptake occurred. The permeation values were calculated at each time point and plotted as a cumulative value. The uptake enhancement ratio represents the total ascorbic acid uptake for laser treated skin divided by the total uptake for untreated skin at 90 min.

[3] = In vitro permeation of ascorbic acid through fractional laser treated ex vivo human skin (Example 6, 60 μm treatment zone size); conditions: for Retention Ratio / Total Uptake Ratio: delivery mode not given; for Cumulative permeation / Enhancement ratio (total uptake by treatment/total uptake in control) / Retention / Total uptake: 90 min
Experimental: In vitro permeation studies were performed on untreated and treated human skin to determine if treatment of the skin with fractional laser radiation increased skin permeability to ascorbic acid. The treatment consisted of exposing the skin in vitro to fractional laser radiation. This study also evaluated the effect of using the laser radiation using the contact delivery mode and the non-contact delivery mode.
Ex vivo skin: All ex vivo laser treatments were performed using a 1550 nm laser system on freshly excised human abdominal skin (Fitzpatrick skin type II).
Laser parameters: Arrays of single mode Gaussian beams of 60 μm 1/e^2 diameter at incidence were delivered to the surface of the skin specimen in each treatment, using contact and non-contact tips. For the contact delivery mode, the laser radiation was delivered through a sapphire window in a contact tip which abutted the specimen. For the non-contact delivery mode, the laser radiation was delivered through a contact tip without the sapphire window; thus, the laser incidence occurred at the air-tissue interface. The laser pulse energies tested for ascorbic acid uptake measurements were 10 and 20 mJ. […]
as §1, with “Ascorbic acid formulation: Topical” for “Topical”
as §2, with “Ascorbic acid permeation studies: The uptake” for “The uptake”, “and 90 min, and quantitatively” for “and 90 min from the diffusion chamber, and quantitatively”
Data analysis: The total uptake was taken as the sum of the permeated and retained ascorbic acid. The permeation values were calculated at each time point and plotted as a cumulative value. The uptake enhancement ratio represents the total ascorbic acid uptake for laser treated skin divided by the total uptake for untreated skin at 90 min.

[4] = 10 mJ, 60 μm spot size, 2000 MTZ/cm2, 0.5% (w/v) solution, n=6
[5] = 1550 nm, 85 μm, 10 mJ, contact mode, 2000 MTZ/cm2
[6] = 1550 nm, 85 μm, 20 mJ, contact mode, 1000 MTZ/cm2
[7] = 1550 nm, 85 μm, 20 mJ, non-contact mode, 1000 MTZ/cm2
[8] = 1550 nm, 85 μm, non-contact mode, pulse energy 20 mJ, text b229 prints 10 mJ @ 2000 MTZ/cm2
[9] = control, non-laser treated skin
[10] = 20 mJ, 1000 TZ/cm2, contact mode
[11] = 20 mJ, 1000 TZ/cm2, non-contact mode
[12] = 1550 nm, 60 μm, 20 mJ, contact mode, 1000 TZ/cm2
[13] = 1550 nm, 60 μm, 20 mJ, non-contact mode, 1000 TZ/cm2
[14] = skin group not stated (sentence follows the control value)

Permeation, Ratio ± Standard Deviation [1, 4]: 37.7 ± 10.6
Retention, Ratio ± Standard Deviation [1, 4]: 2.4 ± 0.8
Uptake, Ratio ± Standard Deviation [1, 4]: 20.3 ± 5.3
Uptake ([1]; laser treated skin, 10 mJ, 60 μm, 2000 MTZ/cm2, after 24 hours): ~1.4 mg/cm^2
Uptake ([1]; untreated skin (control), over 24 hours): below 0.2 mg/cm^2
Compound: O=c1[nH]cc(F)c(=O)[nH]1 [5-Fluorouracil]

Improvement of uptake in non-contact mode over contact mode at identical laser parameters ([2]; 10 mJ @ 2000 MTZ/cm2): ~4 ×
Improvement of uptake in non-contact mode over contact mode at identical laser parameters ([2]; 20 mJ @ 1000 MTZ/cm2): ~3 ×
Cumulative permeation [2, 5]: 0.49 ± 0.07 mg
Enhancement ratio (total uptake in treated sample/total uptake in control) [2, 5]: 6.6
Retention [2, 5]: 0.22 ± 0.02 mg
Total uptake [2, 5]: 0.90±0.07 mg/cm2
Cumulative permeation [2, 6]: 0.27 ± 0.10 mg
Enhancement ratio (total uptake in treated sample/total uptake in control) [2, 6]: 3.6
Retention [2, 6]: 0.12 ± 0.02 mg
Total uptake [2, 6]: 0.49±0.14 mg/cm2
Cumulative permeation [2, 7]: 0.90 ± 0.27 mg
Enhancement ratio (total uptake in treated sample/total uptake in control) [2, 7]: 10.3
Retention [2, 7]: 0.19 ± 0.02 mg
Total uptake [2, 7]: 1.40±0.31 mg/cm2
Cumulative permeation ([2]; 1550 nm, 85 μm, non-contact mode, pulse energy 20 mJ, text b227 prints 10 mJ @ 2000 MTZ/cm2): 2.41 ± 0.44 mg
Retention ([2]; 1550 nm, 85 μm, non-contact mode, pulse energy 20 mJ, text b228 prints 10 mJ @ 2000 MTZ/cm2): 0.40 ± 0.09 mg
Enhancement ratio (total uptake in treated sample/total uptake in control) [2, 8]: 26.3
Total uptake [2, 8]: 3.58±0.54 mg/cm2
Normalized cumulative permeation at 10 mJ @ 2000 MTZ/cm2 relative to 20 mJ @ 1000 MTZ/cm2 ([2]; contact mode): approximately 2 ×
Total uptake at 2000 MTZ/cm2 relative to 1000 MTZ/cm2 within the respective treatment mode ([2]; contact or non-contact, regardless of pulse energy (10 mJ or 20 mJ)): approximately two or more times
Retention [2, 9]: 0.11 ± 0.01 mg
Total uptake [2, 9]: 0.14±0.01 mg/cm2
Normalized cumulative permeation at 10 mJ @ 2000 MTZ/cm2 relative to 20 mJ @ 1000 MTZ/cm2 ([2]; non-contact mode): more than twice
Permeation measured by HPLC ([2]; non-irradiated ex vivo skin, up to 90 min after application): no permeation
Time until permeation was demonstrated ([2]; skin treated at pulse energies of 10 mJ and 20 mJ, contact mode, FIG. 13): ≤ 5 min
Retention Ratio ([3]; 10 mJ, 1000 TZ/cm2): 1.8
Total Uptake Ratio ([3]; 10 mJ, 1000 TZ/cm2): 2.9
Retention Ratio ([3]; 10 mJ, 2000 TZ/cm2): 2.0
Total Uptake Ratio ([3]; 10 mJ, 2000 TZ/cm2): 4.2
Retention Ratio ([3]; 20 mJ, 500 TZ/cm2): 1.3
Total Uptake Ratio ([3]; 20 mJ, 500 TZ/cm2): 7.0
Retention Ratio (retained by treated skin / retained by control skin) [3, 10]: 2.1
Total Uptake Ratio (treated skin / control skin) [3, 10]: 5.3
Retention Ratio (retained by treated skin / retained by control skin) [3, 11]: 3.8
Total Uptake Ratio (treated skin / control skin) [3, 11]: 9.6
Retention Ratio ([3]; 20 mJ, 1000 TZ/cm2): 3.8
Total Uptake Ratio ([3]; 20 mJ, 1000 TZ/cm2): 9.6
Cumulative permeation over time, non-contact mode compared with contact mode ([3]; 20 mJ, FIG. 12): higher permeation levels
Cumulative permeation [3, 12]: 0.20 ± 0.03 mg
Enhancement ratio (total uptake by treatment/total uptake in control) [3, 12]: 5.3
Retention [3, 12]: 0.13 ± 0.01 mg
Total uptake [3, 12]: 0.42 ± 0.06 mg/cm2
Cumulative permeation [3, 13]: 0.37 ± 0.14 mg
Enhancement ratio (total uptake by treatment/total uptake in control) [3, 13]: 9.6
Retention [3, 13]: 0.24 ± 0.03 mg
Total uptake [3, 13]: 0.77 ± 0.18 mg/cm2
Cumulative permeation [3, 9]: below
Retention [3, 9]: 0.06 ± 0.01 mg
Total uptake [3, 9]: 0.08 ± 0.01 mg/cm2
Share of the total uptake contributed by permeation [3, 14]: ~70%
Share of the total uptake contributed by retention [3, 14]: Approximately 30%
Compound: O=C1O[C@H]([C@@H](O)CO)C(O)=C1O [ascorbic acid, L-ascorbic acid]
Permeation into the diffusion chamber ([2]; all conditions of laser treatment tested): observed to permeate into the diffusion chamber
